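Tested at 5 concentrations; 48 h exposure; 96-well plates; endpoints linearly interpolated, else capped at highest concentration. GI50 marks 50% less growth.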 Active and inactive are the calls of the source. Cut-off read from the data, not from the text of the source: active = GI50 up to about 1.1 µM and inactive = higher.
Legend:
Assay in all cases: inhibition of tumour cell growth, NCI panel, 48 h
[1] = tested on: HL-60
[2] = tested on: SK-MEL-2
[3] = tested on: U-251
[4] = tested on: HOP-92
[5] = tested on: SF-268
[6] = tested on: HCC 2998
[7] = tested on: NCI-H23
[8] = tested on: OVCAR-4
[9] = tested on: NCI-H460
[10] = tested on: SK-MEL-28
[11] = tested on: SN12C
[12] = tested on: HCT-15
[13] = tested on: K562
[14] = tested on: COLO 205
[15] = tested on: HOP-62

Measured: GI50

Cc1cc(Cl)ccc1NC(=O)CC1SC(NC(=O)c2ccccc2Cl)=NC1=O (stereo not given)
inactive: [1] 2.19 µM | [2] 26.7 µM | [3] 15.7 µM | [4] 18.8 µM | [5] 16.9 µM | [6] 59.4 µM | [7] 50.2 µM | [8] 20.9 µM | [9] > 100 µM | [10] 22 µM | [11] 17.7 µM | [13] 17 µM
19.1 µM: [12]

O=C(N/C(=C\c1cc(Cl)ccc1Cl)c1nc2c(O)nc(S)nc2[nH]1)c1ccccc1
inactive: [1] 4.82 µM | [14] 37.4 µM | [2] 46.1 µM | [3] 32.1 µM | [4] > 44.6 µM | [5] 33.4 µM | [6] 16.4 µM | [7] 25.8 µM | [8] 39.9 µM | [9] 34.5 µM | [10] 28.1 µM | [11] 30.1 µM | [15] > 100 µM | [13] 7.43 µM
17.2 µM: [12]

O=C(N/C(=C\c1ccc(/C=C(\NC(=O)c2ccccc2)c2nc3cc([N+](=O)[O-])ccc3[nH]2)cc1)c1nc2cc([N+](=O)[O-])ccc2[nH]1)c1ccccc1
inactive: [14] 29.8 µM | [2] 14.9 µM | [3] 54.6 µM | [4] 35.2 µM | [5] 22.1 µM | [6] 27.1 µM | [7] 25.4 µM | [8] 39.5 µM | [10] 14.8 µM | [11] 71.3 µM | [15] > 100 µM | [13] 18.3 µM
49.8 µM: [12]

O=C(Nc1ccc(Sc2ccc(/N=N/c3c(O)c(S(=O)(=O)O)cc4cc(S(=O)(=O)O)ccc34)cc2)cc1)c1ccc(/N=N/c2c(O)c(S(=O)(=O)O)cc3cc(S(=O)(=O)O)ccc23)cc1
inactive: [1] 6.97 µM | [14] 15.9 µM | [2] 18.8 µM | [3] 35.2 µM | [4] 30.5 µM | [5] 38.7 µM | [6] > 100 µM | [7] 12.2 µM | [8] 24.1 µM | [9] 14.5 µM | [10] 32.1 µM | [11] 26.9 µM | [15] 88.1 µM | [13] 19.4 µM
14.9 µM: [12]

Cc1cc(N(CCC#N)CCC#N)ccc1/C=C1N=C(/C=C\c2ccccc2)OC\1=O
> 100 µM: [12]
inactive: [1] > 100 µM | [14] > 100 µM | [2] > 100 µM | [3] > 100 µM | [4] > 100 µM | [5] > 100 µM | [6] > 100 µM | [7] > 100 µM | [8] > 100 µM | [9] > 100 µM | [10] > 100 µM | [11] > 100 µM | [15] > 100 µM | [13] > 100 µM

C/C(=N/NC(N)=S)c1ccc2ccccc2c1
22.2 µM: [12]
inactive: [1] 15 µM | [14] 21.4 µM | [2] 15.8 µM | [3] 24.8 µM | [4] > 100 µM | [5] 23.3 µM | [6] 16 µM | [7] 29.7 µM | [8] 28.3 µM | [9] 24.2 µM | [10] 36.1 µM | [11] 32.7 µM | [15] 46.6 µM

O=C(Cc1nc2ccc([N+](=O)[O-])cc2nc1O)C(=O)Nc1ccccc1[N+](=O)[O-]
44.1 µM: [12]
inactive: [1] > 100 µM | [14] > 100 µM | [2] > 100 µM | [4] > 100 µM | [5] > 100 µM | [6] > 100 µM | [7] > 100 µM | [8] > 100 µM | [9] > 100 µM | [10] > 100 µM | [13] > 100 µM

c1ccc2c(c1)nnn1c3cnccc3nc21
22.6 µM: [12]
inactive: [1] 8.87 µM | [14] 20.7 µM | [2] 53.2 µM | [3] 28.3 µM | [4] 24.6 µM | [5] 37.8 µM | [6] 46.5 µM | [7] 37.8 µM | [8] 29 µM | [9] 16 µM | [10] > 100 µM | [11] 32.4 µM | [15] 40.2 µM | [13] 21.6 µM

Cc1ccc(NC(=O)CSc2nnc(Cc3ccccc3)o2)c(C)c1
inactive: [1] > 100 µM | [14] > 100 µM | [2] > 100 µM | [3] > 100 µM | [5] > 100 µM | [7] > 100 µM | [8] > 100 µM | [9] > 100 µM | [10] > 100 µM | [11] > 100 µM | [15] > 100 µM | [13] > 100 µM
> 100 µM: [12]

CCc1cccc(C(C)C)c1N1C(=O)C(=O)C(c2nc3ccccc3s2)C(=O)C1=O
29.4 µM: [12]
inactive: [1] 12.3 µM | [14] 16.8 µM | [2] > 50 µM | [3] > 48.3 µM | [4] > 50 µM | [5] > 50 µM | [6] > 50 µM | [7] 27.9 µM | [8] > 50 µM | [9] > 50 µM | [10] > 50 µM | [11] > 50 µM | [15] > 50 µM | [13] 16.3 µM

From ChEMBL document CHEMBL1201862, “PubChem BioAssay data set” (2004)
